Test results from article PMC11279401, “Inhibitory Effect of Selected Guaianolide and Germacranolide Sesquiterpene Lactones on Nitric Oxide Production” (Molecules, 2024).
“Also recorded” adds a separate entry of the source. Like-named read-outs stand apart in the source and are kept apart here. Values belong to the molecule of their own block, whether it stands above or below them.

Columns and labels:
[1] = tested on: NO production by mouse peritoneal cells; experiment: Nitric oxide assay (Griess), LPS + IFN-γ-activated mouse peritoneal cells; assay type: cell-based; settings: 24 h; for Effect on IFN-γ + LPS-activated NO production (in words): 10 µM screening, mouse peritoneal cells; for IC50: (LPS + IFN-γ)-activated mouse peritoneal cells, concentrations 0.01–50.0 μM tested, read-out: Inhibition of nitric oxide production, IC50
Experimental: The tested compounds were dissolved in dimethyl sulfoxide (DMSO) to make stock solutions at a concentration of 50 mM, and then stored at −20 °C. Their biological activities were screened using a final concentration of 10 µM. […] This concentration of DMSO was devoid of any effects in biological assays.
(§1) The animals were killed by cervical dislocation and injected intraperitoneally with 8 mL of sterile saline. Pooled peritoneal cells collected from the mice (n = 4–6 in individual experiments) were washed and re-suspended in a culture medium. The cell suspension was seeded onto 96-well round-bottom microplates (Costar, Corning, NY, USA). Final samples were supplemented to 100 µL volumes, containing 1–2 × 10^6 cells per well, depending on the assay. Cultures were maintained at 37 °C, 5% CO2 in a humidified incubator (Heraeus Holding GmbH, Hanau, Germany). The complete RPMI-1640 culture medium (Sigma-Aldrich, St. Louis, MO, USA) contained 10% heat-inactivated fetal bovine serum, 2 mM L-glutamine, 50 µg/mL gentamicin, and 5 × 10^−5 M 2-mercaptoethanol (all Sigma-Aldrich).
High-output NO production was induced by a mixture of lipopolysaccharide (LPS from E. coli 0111:B4, 0.1 ng/mL; Sigma) and murine recombinant interferon-γ (IFN-γ, 5 ng/mL; R&D Systems, Minneapolis, MN, USA) in mouse peritoneal cells (2 × 10^6/mL). The tested compounds were applied concomitantly with both priming stimuli, and peritoneal macrophages were cultured for 24 h. The concentration of nitrites in the supernatants of the cell cultures was taken as a measure of NO production. It was detected in individual cell-free samples (50 µL) incubated for 5 min at ambient temperature with an aliquot of Griess reagent (1% sulfanilamide/0.1% naphtylendiamine/2.5% H3PO4). Absorbance at 540 nm was recorded using a microplate spectrophotometer (Tecan, Grödig, Austria). A nitrite calibration curve was used to convert absorbance values to µM of nitrite.

[2] = Cytotoxicity assay (WST-1), viability of mouse peritoneal cells; assay type: cell-based; settings: 10 µM compound, mouse peritoneal cells 1.0 × 10^6/mL, 24 h, read-out: Cell viability (O.D.) relative to untreated controls; for viability at 24 h, 10 µM: primary mouse peritoneal cells (macrophages)
Experimental: (§2) The tested compounds were dissolved in dimethyl sulfoxide (DMSO) to make stock solutions at a concentration of 50 mM, and then stored at −20 °C. Their biological activities were screened using a final concentration of 10 µM.
as §1, with “Germany).” for “Germany). The complete RPMI-1640 culture medium (Sigma-Aldrich, St. Louis, MO, USA) contained 10% heat-inactivated fetal bovine serum, 2 mM L-glutamine, 50 µg/mL gentamicin, and 5 × 10^−5 M 2-mercaptoethanol (all Sigma-Aldrich).”
(§3) The viability of mouse peritoneal cells was determined using a colorimetric assay based on the cleavage of tetrazolium salt WST-1 by mitochondrial dehydrogenases in viable cells (Roche Diagnostics, Mannheim, Germany). The cells (1 × 10^6/mL) were cultured as described above. The viability of primary murine macrophages was tested in the presence of 10 µM of the respective test substance for […]. After the first 24 h of cultivation, WST-1 was added (10 µL), and the cells were kept in a Heraeus incubator at 37 °C for an additional 3 h. Triton X-100 (1%) was used as a common reference in the cytotoxicity assay. Optical density was evaluated at wavelengths of 450–690 nm.

mouse peritoneal cells = experiment: as above; assay type: cell-based; settings: 10 µM compound, primary murine macrophages
Experimental: as §2
as §1, with “Germany).” for “Germany). The complete RPMI-1640 culture medium (Sigma-Aldrich, St. Louis, MO, USA) contained 10% heat-inactivated fetal bovine serum, 2 mM L-glutamine, 50 µg/mL gentamicin, and 5 × 10^−5 M 2-mercaptoethanol (all Sigma-Aldrich).”
as §3

[3] = tested on: polymorphonuclear lymphocytes; design: method as in PMID 30653318; settings: cited from earlier work
RAW264.7 macrophages = settings: cited from earlier work
[4] = tested on: production of PGE2 by murine peritoneal cells; experiment: Prostaglandin E2 assay (ELISA), LPS-stimulated murine peritoneal cells; assay type: cell-based, mouse; settings: 10 ng/mL LPS, 6 h, murine peritoneal cells 2.0 × 10^6/mL
Experimental: as §1
(§4) The concentration of PGE2 was determined in the supernatants of cells cultured (2 × 10^6/mL) after the addition of 10 ng/mL LPS for an interval of 6 h. The levels of cytokines TNF-α, IL-1β, IL-6, and IL-10, and the chemokine RANTES were determined in the supernatants of cells cultured (2 × 10^6/mL) in the presence of 1 µg/mL LPS for an interval 21 h. The extent of PGE2 release and cytokine secretion was determined using enzyme-linked immune-absorbent assay (ELISA) kits according to the manufacturer’s instructions (R&D Systems, Minneapolis, MN, USA).

[5] = tested on: secretion of cytokines TNF-α, IL-1β, IL-6, IL-10 and chemokine RANTES by murine peritoneal cells; experiment: Cytokine assays (ELISA), LPS-stimulated murine peritoneal cells; assay type: cell-based, mouse; settings: 1 µg/mL LPS, 21 h, IL-6, IL-10, RANTES
Experimental: as §1, §4

- IC50 [1]: 3.2 µM
Molecule: C=C1C(=O)O[C@@H]2/C=C(\C)CC/C=C(\C)CC[C@@H]12 [Compound 16, costunolide]
- viability at 24 h, 10 µM [2]: ~50%
- Cytotoxicity / effect on cell viability (in words) (mouse peritoneal cells): moderate toxicity; also recorded: remarkable cytotoxicity

- IC50 [1]: 90.2 µM
Molecule: CC=C(C)C(=O)OC1(C)C(=O)OC2C=C(C)CCC=C(C)CCC(OC(C)=O)C21 (stereo not shown) [Compound 21, laserolide]
- Cytotoxicity / effect on cell viability (in words) (mouse peritoneal cells): did not show any cytotoxicity

- IC50 [1]: 2.81 µM
Molecule: C=C1C(=O)O[C@@H]2[C@H]3C(CO)=CC(=O)C3=C(C)CC[C@@H]12 [Compound 13, 8-deoxylactucin]
- Effect on IFN-γ + LPS-activated NO production (in words) [1]: significant NO-inhibitory effect
- IC50 (RAW264.7 macrophages; RAW264.7 macrophages, read-out: Inhibition of nitric oxide production, IC50): 13 µM
- Cytotoxicity / effect on cell viability (in words) (mouse peritoneal cells): without any suppression of cell viability
- Effect on immune-activated production of PGE2 (in words) [4]: did not interfere
- Effect on secretion of cytokines (in words) [5]: did not interfere

- IC50 [1]: > 100 µM
Molecule: CC1=CC(=O)C2=C(C)CCC3C(OC(=O)C3(C)OC3OC(CO)C(O)C(O)C3O)C12 (stereo not drawn) [Compound 9, 11β-hydroxyleukodin glucoside]

- IC50 [1]: > 100 µM
Molecule: C=C1C(=O)OC2C1CCC(C)(O)C1CC(OC3OC(CO)C(O)C(O)C3O)C(=C)C21 (stereo not shown) [Compound 12, ixerin D]

- IC50 [1]: 2.79 µM
Molecule: C=C1C(=O)O[C@H]2[C@H]1CC/C(C)=C/CC[C@@]1(C)O[C@@H]21 [Compound 19, parthenolide]
- Effect on IFN-γ + LPS-activated NO production (in words) [1]: substantially decreased the production of NO
- viability at 24 h, 10 µM [2]: 81.1 ± 6.34%

- IC50 [1]: > 100 µM
Molecule: CC1=CC(=O)C2=C(C)CC(OC3OC(CO)C(O)C(O)C3O)C3C(OC(=O)C3(C)O)C12 (stereo not drawn) [Compound 10, 11β-hydroxydeacetylmatricarin glucoside]

- IC50 [1]: 4.38 µM
Molecule: eupatolide [Compound 17]
- Effect on IFN-γ + LPS-activated NO production (in words) [1]: significant NO-inhibitory effect
- IC50 (RAW264.7 macrophages; murine macrophage line RAW264.7, read-out: Inhibitory potency against NO production, concentration range): 1.54 to 6.43 µM

- IC50 [1]: > 100 µM
Molecule: C=C1CC(O)C2C(=C)C(=O)OC2C2C1CC(OC1OC(CO)C(O)C(O)C1O)C2C (stereo not shown) [Compound 11, 11,13-dehydro-8-epiisolippidiol glucoside]

The remaining lines, values behind:

Molecule: C=C1C(=O)OC2C1CC(O)C(C)=CCCC1(C)OC21 (stereo not shown) [Compound 20, 9-hydroxyparthenolide]
- Effect on IFN-γ + LPS-activated NO production (in words) [1]: substantially decreased the production of NO
- IC50 [1]: 5.64 µM
- viability at 10 µM [2]: 77 ± 5.09%

Molecule: C=C1CC(O)C2C(C)C(=O)OC2C2C1CC(OC1OC(CO)C(O)C(O)C1O)C2C (stereo not shown) [Compound 5, 4,8-diepiisolippidiol glucoside]
- IC50 [1]: > 100 µM

Molecule: C=C1C(=O)O[C@@H]2/C=C(\C)CC/C=C(\C)C[C@@H](OC(=O)/C(=C/CO)CO)[C@@H]12 [Compound 18, eupatoriopicrin]
- Concentration up to which not toxic [3]: ≤ 2.5 µM
- IC50 [1]: 1.65 µM
- viability at 10 µM [2]: ~10%
- Cytotoxicity / effect on cell viability (in words) (mouse peritoneal cells): highly toxic; also recorded: remarkable cytotoxicity

Molecule: C=C1C[C@@H](O)[C@@H]2[C@H](OC(=O)[C@H]2C)[C@H]2[C@H](C)[C@@H](O)C[C@@H]12 [Compound 2, 8-epiisolippidiol]
- IC50 [1]: > 100 µM

Molecule: C=C1C(O)CC2C(C)C(=O)OC2C2C(=C)C(OC3OC(CO)C(O)C(O)C3O)CC12 (stereo not shown) [Compound 8, ixerin F]
- IC50 [1]: > 100 µM

Molecule: CC1=CC(=O)C2=C(C)CC(OC3OC(CO)C(O)C(O)C3O)C3C(C)C(=O)OC3C12 (stereo not shown) [Compound 6, deacetylmatricarin glucoside]
- IC50 [1]: > 100 µM

Molecule: C=C(CO)C(=O)O[C@H]1CC(=C)[C@@H]2C[C@H](O)C(=C)[C@@H]2[C@H]2OC(=O)C(=C)[C@@H]21 [Compound 14, cynaropicrin]
- IC50 [1]: 9.87 µM
- viability at 24 h, 10 µM [2]: ~50%
- Cytotoxicity / effect on cell viability (in words) (mouse peritoneal cells): cytotoxic; also recorded: remarkable cytotoxicity

Molecule: CC1=C2C(=O)C=C(COC3OC(CO)C(O)C(O)C3O)C2C2OC(=O)C(C)C2CC1 (stereo not shown) [Compound 7, crepidiaside B]
- IC50 [1]: > 100 µM

Molecule: CC1=CC(=O)C2=C(C)C[C@H](O)[C@@H]3[C@H](OC(=O)[C@H]3C)[C@@H]12 [Compound 3, deacetylmatricarin]
- IC50 [1]: > 100 µM

Molecule: C=C1C[C@@H](O)[C@@H]2[C@H](OC(=O)[C@H]2C)[C@H]2[C@H](C)C(=O)C[C@@H]12 [Compound 1, 8-epiisoamberboin]
- NO production relative to controls stimulated with IFN-γ + LPS ([1]; 10 µM compound, mouse peritoneal cells 2.0 × 10^6/mL): about 25%
- Effect on IFN-γ + LPS-activated NO production (in words) [1]: significant NO-inhibitory effect
- IC50 [1]: 23.8 µM
- Cytotoxicity / effect on cell viability (in words) (mouse peritoneal cells): without any suppression of cell viability

Molecule: CC1=C2C(=O)C=C(CO)[C@@H]2[C@H]2OC(=O)[C@@H](C)[C@@H]2[C@@H](O)C1 [Compound 4, 11β,13-dihydrolactucin]
- IC50 [1]: > 100 µM

Molecule: C=C1C(=O)O[C@@H]2C[C@@H](C)[C@@H]3C=CC(=O)[C@@]3(C)[C@@H](O)[C@H]12 [Compound 15, helenalin]
- IC50 [1]: 0.74 µM
